Like-named read-outs stand apart in the source and are kept apart here.
Key:
wild-type EGFR = wild-type EGFR (Homo sapiens, UniProt P00533); conditions: reportedly; cited from earlier work
[1] = Reactivity as covalent inhibitor: half-life in buffered aqueous cysteine solution; conditions: for half-life: PBS buffer with cysteine, 37° C.; for Improvement (%) of t½ in cysteine solution: deuterated compound vs. reference osimertinib
Description: The combo solutions were prepared by mixing individual evaluated compounds with reference osimertinib. Then, they were added to PBS buffer solution with cysteine at 37° C. The stability time course samples (in triplicate) were taken and added to prechilled quenching solution and then store at −70° C. freezer. The samples were analyzed on a Waters Acquity UPLC system coupled with a Bruker Q-tof mass spectrometer. The peak areas of respective extracted ion chromatograms were used for relative comparison.

[2] = Drug metabolism and pharmacokinetic evaluation in human liver microsome suspensions (percentage of compound remaining vs. incubation time); assay type: in vitro ADME; conditions: human liver microsomes, NADPH, 37° C., after 4 hour, combo incubation with Osimertinib
Description: In vitro drug metabolism and pharmacokinetic evaluation of D16-Osimertinib, and D19-Osimertinib against Osimertinib was conducted in Human Liver Microsome suspensions. The stability time course samples were prepared in house and extracted immediately by protein precipitation method using MeCN containing 400 ng/mL carbutomide as the internal standard (IS). The samples were analyzed on a Waters Acquity UPLC system coupled with a Bruker Q-tof mass spectrometer. The peak areas of respective extracted ion chromatograms were used for relative comparison. The sample preparation was performed according to the following procedure: […] The samples were put in 37° C. incubator for 10 minutes. […] The samples were vortexed and centrifuged at 13,000 g for approximately 5 minutes, then supernatants were taken and stored in −20° C. freezer. The sampling at a time point was triplicate. After the last samples were taken and they were placed in −20° C. at least 1 hour. All samples were put into a refrigerator at approximate 4° C. for 30 minutes. The samples were vortexed. Then approximately 100 μL of the supernatants were transferred to corresponding wells of a 96-well plate. The samples were diluted with 100 μL of 0.1% FA in water. The samples were vortexed and briefly centrifuged for LC-HRMS analysis. Sample chamber for LC-HRMS was kept at approximate 4° C. […]

[3] = Monkey pharmacokinetic study on deuteration of indole N-methyl group; assay type: in vivo; conditions: cynomolgus monkey, blood; male cynomolgus monkeys, single oral administration, 20 mg/Kg; read-out: AUC(0-t) of the parent
Description: A total of two (2) cynomolgus monkeys (male) were placed on study. Washout period lasted 7 days between two phases. Each test article was administered to an individual animal via a single oral administration for all groups. The dose levels were 20 mg/Kg. All animals were given detailed clinical examinations prior to administration, and no abnormality was observed. Cage side observation was conducted on all animals twice daily throughout the duration of administration. All animals were weighed before dosing on the day of administration. Blood samples were collected predose and postdose 0.25, 0.5, 1, 2, 3, 4, 6, 8, 12, 24, 36 and 48 h from the femoral vein at appropriate time points for analysis. These samples were analyzed by LC-MS/MS.

HepG2 hepatoma cells = assay: Cell-based experiment on inhibition of WT-EGFR: cell proliferation of HepG2 hepatoma cells
Text: (§1) A431 cells are a model human cell line which express abnormally high levels of the wide-type epidermal growth factor receptor (WT EGFR). WT EGFR inhibitors can affect cell prolification of the cells. Similarly the prolification of HepG2 hepatoma cells can be inhibited by WT EGFR inhibitors.

[4] = tested on: A431 human squamous carcinoma cells (WT EGFR); assay: Cell-based experiment on inhibition of WT-EGFR: cell proliferation of A431 cells
Text: as §1

[5] = combo solution with osimertinib, read-out: Half-life in cysteine solution, Deuterated (t½ h) (converted)

Chain of wild-type EGFR (P00533 25-1210): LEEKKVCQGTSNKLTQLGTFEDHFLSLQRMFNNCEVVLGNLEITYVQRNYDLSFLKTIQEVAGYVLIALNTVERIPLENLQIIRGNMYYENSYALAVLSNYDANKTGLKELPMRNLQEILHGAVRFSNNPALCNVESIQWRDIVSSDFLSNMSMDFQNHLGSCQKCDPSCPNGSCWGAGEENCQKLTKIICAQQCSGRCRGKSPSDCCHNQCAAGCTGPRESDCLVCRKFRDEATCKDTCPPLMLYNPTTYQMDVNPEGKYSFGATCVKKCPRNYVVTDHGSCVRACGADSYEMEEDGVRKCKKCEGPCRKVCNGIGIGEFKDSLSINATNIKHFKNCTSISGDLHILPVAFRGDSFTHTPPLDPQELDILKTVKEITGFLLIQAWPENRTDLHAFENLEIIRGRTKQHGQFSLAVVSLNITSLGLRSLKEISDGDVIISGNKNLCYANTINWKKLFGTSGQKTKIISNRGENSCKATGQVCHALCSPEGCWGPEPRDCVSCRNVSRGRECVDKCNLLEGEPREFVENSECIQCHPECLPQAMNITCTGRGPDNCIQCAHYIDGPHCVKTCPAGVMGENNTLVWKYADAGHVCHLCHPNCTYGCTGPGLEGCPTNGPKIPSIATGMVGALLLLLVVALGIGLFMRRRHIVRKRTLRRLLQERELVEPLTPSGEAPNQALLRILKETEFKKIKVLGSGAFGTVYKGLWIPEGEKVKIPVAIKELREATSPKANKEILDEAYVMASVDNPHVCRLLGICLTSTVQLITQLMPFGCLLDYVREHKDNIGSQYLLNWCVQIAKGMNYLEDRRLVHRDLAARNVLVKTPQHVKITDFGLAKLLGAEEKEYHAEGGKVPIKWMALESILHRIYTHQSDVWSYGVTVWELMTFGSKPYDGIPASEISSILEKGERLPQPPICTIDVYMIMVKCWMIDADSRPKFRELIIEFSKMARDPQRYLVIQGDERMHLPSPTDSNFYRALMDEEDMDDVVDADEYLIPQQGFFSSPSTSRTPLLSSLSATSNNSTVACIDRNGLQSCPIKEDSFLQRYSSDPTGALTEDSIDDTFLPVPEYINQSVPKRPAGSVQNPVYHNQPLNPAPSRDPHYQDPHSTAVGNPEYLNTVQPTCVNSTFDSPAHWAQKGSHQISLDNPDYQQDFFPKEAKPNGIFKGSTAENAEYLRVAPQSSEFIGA

| Compound | half-life [1, 5] | Improvement (%) of t½ in cysteine solution [1] | difference between the concentrations of Osimertinib and the deuterated compound (percentage remaining) [2] | further results |
| --- | --- | --- | --- | --- |
| C=CC(=O)Nc1cc(Nc2nccc(-c3cn(C)c4ccccc34)n2)c(OC)cc1N(C)CCNC [AZ7550] |  |  |  | affinity towards wild-type EGFR (wild-type EGFR): low affinity towards wild-type EGFR |
| [2H]C([2H])=C([2H])C(=O)Nc1cc(Nc2nccc(-c3cn(C)c4ccccc34)n2)c(OC)cc1N(C)CCN(C)C [D3-osimertinib] | 4.05 h | 33% |  |  |
| [2H]C([2H])=C([2H])C(=O)Nc1cc(Nc2nccc(-c3cn(C([2H])([2H])[2H])c4ccccc34)n2)c(OC)cc1N(C)CCN(C)C [D6-osimertinib] | 4.56 h | 23% |  |  |
| [2H]C([2H])([2H])N(c1cc(OC)c(Nc2nccc(-c3cn(C([2H])([2H])[2H])c4ccccc34)n2)cc1NC(=O)C=C)C([2H])([2H])C([2H])([2H])N(C([2H])([2H])[2H])C([2H])([2H])[2H] [D16-osimertinib] |  |  | ~26% |  |
| [2H]C([2H])=C([2H])C(=O)Nc1cc(Nc2nccc(-c3cn(C([2H])([2H])[2H])c4ccccc34)n2)c(OC)cc1N(C([2H])([2H])[2H])C([2H])([2H])C([2H])([2H])N(C([2H])([2H])[2H])C([2H])([2H])[2H] [D19-osimertinib] | 2.75 h | 43% | ~28% |  |
| C=CC(=O)Nc1cc(Nc2nccc(-c3cn(C)c4ccccc34)n2)c(OC)cc1N(C)CCN(C)C [Osimertinib, N-(2-{2-dimethylaminoethyl-methylamino}-4-methoxy-5-{[4-(1-methylindol-3-yl)pyrimidin-2-yl]amino}phenyl)prop-2-enamide] |  |  |  | AUC(0-t) [3]: 0.654 µg·h/mL; cell viability (HepG2 hepatoma cells): did not affect the viability of cells; half-life ([1]; reference osimertinib in combo solution with the deuterated compound, read-out: Half-life in cysteine solution, Reference (t½ h) (converted)): 5.41 h; cell viability [4]: did not affect the viability of cells |

From patent US9968606B2, “Deuterated compounds for treating cancer and related diseases and conditions, and compositions and methods thereof” (NeuForm Pharmaceuticals, Inc., priority 2015, dated 2018)
